Assay results: ChEMBL document CHEMBL3886737, “5-chloro-2-difluoromethoxyphenyl pyrazolopyrimidine compounds, compositions and methods of use thereof” (2016)

Legend:
[1] = molecular target: Tyrosine-protein kinase JAK2 (Homo sapiens, UniProt O60674); experiment: (§1) JAK Enzyme Assay: The activity of the isolated recombinant JAK1 and JAK2 kinase domain was measured by monitoring phosphorylation of a peptide derived from JAK3 ([…] fluorescently labeled on the N-terminus with 5-carboxyfluorescein) using the Caliper LabChip® technology (Caliper Life Sciences, Hopkinton, Mass.). […] Reactions were incubated at 22° C. in 384-well polypropylene microtiter plates for 30 minutes and then stopped by addition of 25 μL of an EDTA containing solution (100 mM HEPES buffer (pH 7.2), 0.015% Brij-35, 150 mM EDTA), resulting in a final EDTA concentration of 50 mM. After termination of the kinase reaction, the proportion of phosphorylated product was determined as a fraction of total peptide substrate using the Caliper LabChip® 3000 according to the manufacturer's specifications.
Chain of Tyrosine-protein kinase JAK2 (O60674 whole entry, the tested form may be a part): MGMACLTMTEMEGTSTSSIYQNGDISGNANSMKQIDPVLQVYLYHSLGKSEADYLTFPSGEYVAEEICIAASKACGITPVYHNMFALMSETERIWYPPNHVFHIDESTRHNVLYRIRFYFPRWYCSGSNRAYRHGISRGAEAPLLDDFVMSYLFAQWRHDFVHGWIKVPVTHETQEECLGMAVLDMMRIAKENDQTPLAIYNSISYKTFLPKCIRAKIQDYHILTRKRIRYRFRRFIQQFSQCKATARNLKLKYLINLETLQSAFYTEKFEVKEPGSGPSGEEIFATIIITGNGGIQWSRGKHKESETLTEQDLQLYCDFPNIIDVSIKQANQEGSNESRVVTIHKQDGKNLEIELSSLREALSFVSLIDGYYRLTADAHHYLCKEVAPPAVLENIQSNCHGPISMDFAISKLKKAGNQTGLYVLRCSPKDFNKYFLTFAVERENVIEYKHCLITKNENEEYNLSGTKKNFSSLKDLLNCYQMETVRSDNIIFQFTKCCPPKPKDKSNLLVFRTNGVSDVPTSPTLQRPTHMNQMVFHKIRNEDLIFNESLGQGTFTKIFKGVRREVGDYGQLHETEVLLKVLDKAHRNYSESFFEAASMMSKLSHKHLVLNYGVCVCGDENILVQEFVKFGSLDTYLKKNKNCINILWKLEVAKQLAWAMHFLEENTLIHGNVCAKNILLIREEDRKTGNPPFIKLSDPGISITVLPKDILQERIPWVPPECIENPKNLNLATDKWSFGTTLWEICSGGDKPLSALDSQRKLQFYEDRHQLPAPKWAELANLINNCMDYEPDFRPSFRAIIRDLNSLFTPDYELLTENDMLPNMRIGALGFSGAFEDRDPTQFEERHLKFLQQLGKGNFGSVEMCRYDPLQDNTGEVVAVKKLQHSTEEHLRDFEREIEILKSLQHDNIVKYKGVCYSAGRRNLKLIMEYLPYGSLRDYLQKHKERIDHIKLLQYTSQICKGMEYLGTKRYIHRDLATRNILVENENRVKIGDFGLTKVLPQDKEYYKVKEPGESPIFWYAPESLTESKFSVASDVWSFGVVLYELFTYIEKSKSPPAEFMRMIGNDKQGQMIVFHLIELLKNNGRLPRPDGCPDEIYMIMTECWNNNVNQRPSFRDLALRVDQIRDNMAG

[2] = molecular target: Tyrosine-protein kinase JAK1 (Homo sapiens, UniProt P23458); experiment: as §1
Chain of Tyrosine-protein kinase JAK1 (P23458 whole entry): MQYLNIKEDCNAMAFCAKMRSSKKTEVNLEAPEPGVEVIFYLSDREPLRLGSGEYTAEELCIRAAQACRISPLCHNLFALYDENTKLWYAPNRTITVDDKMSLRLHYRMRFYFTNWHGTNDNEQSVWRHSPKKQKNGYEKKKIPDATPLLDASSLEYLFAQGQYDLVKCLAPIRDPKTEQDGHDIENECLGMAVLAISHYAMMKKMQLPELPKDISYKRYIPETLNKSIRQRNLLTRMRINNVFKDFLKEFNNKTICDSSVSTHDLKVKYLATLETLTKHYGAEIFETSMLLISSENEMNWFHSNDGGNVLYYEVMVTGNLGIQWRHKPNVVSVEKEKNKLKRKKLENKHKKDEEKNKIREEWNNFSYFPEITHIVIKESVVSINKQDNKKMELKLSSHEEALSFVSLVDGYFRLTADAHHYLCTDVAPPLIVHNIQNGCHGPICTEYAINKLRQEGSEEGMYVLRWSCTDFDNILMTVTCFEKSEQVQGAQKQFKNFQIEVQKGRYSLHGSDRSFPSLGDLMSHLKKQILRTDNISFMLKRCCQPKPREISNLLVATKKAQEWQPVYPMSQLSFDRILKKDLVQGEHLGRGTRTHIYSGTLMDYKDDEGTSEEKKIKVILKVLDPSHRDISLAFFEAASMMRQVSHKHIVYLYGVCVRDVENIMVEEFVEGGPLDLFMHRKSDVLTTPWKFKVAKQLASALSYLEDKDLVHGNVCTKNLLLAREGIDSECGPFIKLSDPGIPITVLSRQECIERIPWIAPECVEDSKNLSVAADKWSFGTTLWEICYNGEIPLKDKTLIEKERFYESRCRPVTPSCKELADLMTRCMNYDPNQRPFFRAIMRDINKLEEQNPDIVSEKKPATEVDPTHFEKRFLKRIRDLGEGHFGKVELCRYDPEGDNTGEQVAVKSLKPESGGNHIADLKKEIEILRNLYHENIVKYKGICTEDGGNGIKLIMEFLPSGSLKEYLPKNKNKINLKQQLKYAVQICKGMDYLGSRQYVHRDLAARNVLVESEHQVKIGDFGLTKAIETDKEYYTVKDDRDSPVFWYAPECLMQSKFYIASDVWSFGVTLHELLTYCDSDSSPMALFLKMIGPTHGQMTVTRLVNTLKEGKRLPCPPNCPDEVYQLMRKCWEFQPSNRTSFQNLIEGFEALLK

SMILES | Ki [1] [nM] | Ki [2] [nM]
CN(CC1(C#N)CC1)C1CCN(C(=O)Cn2cc(NC(=O)c3cnn4cccnc34)c(-c3cc(Cl)ccc3OC(F)F)n2)CC1 | 0.64 | –
C[N+](C)(CCCc1ccccc1)C1CCN(C(=O)Cn2cc(NC(=O)c3cnn4cccnc34)c(-c3cc(Cl)ccc3OC(F)F)n2)CC1 | 2.9 | 1.21
CCOC(=O)CCN1CCN(C(=O)Cn2cc(NC(=O)c3cnn4cccnc34)c(-c3cc(Cl)ccc3OC(F)F)n2)CC1 | – | 0.49
O=C(Nc1cn(CC(=O)N2CCC(N3CC[S+]([O-])CC3)CC2)nc1-c1cc(Cl)ccc1OC(F)F)c1cnn2cccnc12 | 0.63 | 0.23
Nc1nn2cccnc2c1C(=O)Nc1cn(CC(=O)N2CC[C@@H](O)C2)nc1-c1cc(Cl)ccc1OC(F)F | 0.13 | –
CN(C)C1CCN(C(=O)C2CCN(c3nc(-c4cc(Cl)ccc4OC(F)F)c(NC(=O)c4cnn5cccnc45)s3)CC2)CC1 | 0.86 | 0.89
CN1CCC(n2cc(NC(=O)c3c(N)nn4cccnc34)c(-c3cc(Cl)ccc3OC(F)F)n2)CC1 | – | 0.76
N#C[C@H]1CCCN(C2CCN(C(=O)Cn3cc(NC(=O)c4cnn5cccnc45)c(-c4cc(Cl)ccc4OC(F)F)n3)CC2)C1 | 0.76 | 0.3
